This is an account of results in ChEMBL document CHEMBL1201862, “PubChem BioAssay data set” (2004).

Among the test systems are OVCAR-4; RPMI-8226; K562; SK-OV-3; HL-60; EKVX; NCI-H23; SW-620; NCI-H522; SF-539; CAKI-1; UACC-257; HCT-15; SK-MEL-5; SNB-19; OVCAR-8; SF-295; UO-31; ACHN; OVCAR-3.
Assay in all cases: inhibition of tumour cell growth, NCI panel, 48 h

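The compound was tested at five concentrations on cells cultured in 96-well plates, with a 48-hour exposure period. Abbreviation: GI50, concentration required for 50% inhibition of growth.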 Activity calls are given as the source filed them. No stated cut-off is given here; in the data, active = GI50 up to about 1.1 µM and inactive = higher. Where only a bound is given, the exact number is not on record here.

Turning to `Cc1ccc([N+](=O)[O-])cc1NC(=O)C(=O)C(C(=O)c1ccccc1F)C1OC(=O)c2ccccc21` (stereo not given), the GI50 is 65 µM (inactive) in the assay with OVCAR-4; 29.4 µM (inactive) in the assay on RPMI-8226; 32.7 µM (inactive) with K562; 46.5 µM (inactive) in the assay with SK-OV-3; 26.9 µM (inactive) in the assay with HL-60; 46 µM (inactive) in the assay on EKVX. Further, the GI50 with NCI-H23 was 38.5 µM (inactive); with SW-620 it was 35.1 µM (inactive); in the assay on NCI-H522 it was 20.3 µM (inactive); with SF-539 it was 24.5 µM (inactive); in the assay with CAKI-1, 53.8 µM (inactive); with UACC-257 it was > 100 µM (inactive). Besides, the GI50 in the assay on HCT-15 is 26.7 µM; in the assay on SK-MEL-5, 63.1 µM (inactive); in the assay with SNB-19, 15.3 µM (inactive); with OVCAR-8, 25.2 µM (inactive); in the assay on SF-295 it was 42.6 µM (inactive); in the assay on UO-31, 49.1 µM (inactive). Besides, in the assay with ACHN, the GI50 is 62.2 µM (inactive).
As to `CC(=O)OCC1OC(n2c(-c3ccc(Cl)cc3)cc(-c3ccccc3)c(C#N)c2=S)C(OC(C)=O)C(OC(C)=O)C1OC(C)=O` (stereo not given), the GI50 with OVCAR-4 was 1.79 µM (inactive); with RPMI-8226 it was 8.91 µM (inactive); with K562, 3.66 µM (inactive); with SK-OV-3, 12.6 µM (inactive); in the assay with HL-60 it was 3.18 µM (inactive); in the assay on OVCAR-3 it was 10.6 µM (inactive). Further, the GI50 is 17.7 µM (inactive) with EKVX; 14.2 µM (inactive) with NCI-H23; 3.3 µM (inactive) in the assay with SW-620; 18.1 µM (inactive) with NCI-H522; 3.99 µM (inactive) in the assay on SF-539; 13.9 µM (inactive) in the assay with CAKI-1. For the same compound, the GI50 with HCT-15 was 29.9 µM; with SK-MEL-5 it was 11.4 µM (inactive); in the assay on SNB-19 it was 8.53 µM (inactive); with OVCAR-8, 10 µM (inactive); in the assay on SF-295 it was 11.5 µM (inactive); in the assay with UO-31 it was 23.5 µM (inactive). In addition, in the assay with ACHN, the GI50 was 13.5 µM (inactive).
Regarding `O=c1c(-c2ccccc2)c(SCCCN2CCCCC2)n(-c2ccccc2)c(=S)n1-c1ccccc1`, the GI50 is 24 µM (inactive) in the assay with OVCAR-4; 17 µM (inactive) with RPMI-8226; 14.1 µM (inactive) in the assay with K562; 19.8 µM (inactive) in the assay with SK-OV-3; 16.6 µM (inactive) in the assay with HL-60; 18.2 µM (inactive) in the assay with OVCAR-3. Also, the GI50 with EKVX was > 100 µM (inactive); with NCI-H23, 19 µM (inactive); with SW-620 it was 19.6 µM (inactive); in the assay with NCI-H522 it was 22.4 µM (inactive); with SF-539, 15.7 µM (inactive); in the assay with CAKI-1, 19.5 µM (inactive). Besides, the GI50 with UACC-257 was 16.8 µM (inactive); in the assay on HCT-15, 17.3 µM; with SK-MEL-5, 16 µM (inactive); in the assay with OVCAR-8, 18.6 µM (inactive); with SF-295 it was 17.1 µM (inactive); with ACHN it was 17.4 µM (inactive).
With `COc1ccc(C2COc3cc(O)c(O)cc3C2)cc1` (stereo not given), the GI50 in the assay on OVCAR-4 is 12.1 µM (inactive); in the assay with RPMI-8226, 7.45 µM (inactive); in the assay with K562, 9.08 µM (inactive); in the assay with SK-OV-3, 86.3 µM (inactive); with HL-60, 1.58 µM (inactive); in the assay on OVCAR-3, 11.4 µM (inactive). The GI50 with EKVX is 14.1 µM (inactive); in the assay with NCI-H23, 17.7 µM (inactive); in the assay with SW-620, 9.06 µM (inactive); in the assay with NCI-H522, 4.84 µM (inactive); with SF-539, 30.1 µM (inactive); with CAKI-1 it was 13.7 µM (inactive). For the same compound, the GI50 in the assay with UACC-257 was 27.4 µM (inactive); in the assay on HCT-15, 10.2 µM; with SK-MEL-5 it was 24.4 µM (inactive); in the assay with SNB-19, 24.8 µM (inactive); with OVCAR-8, 13.3 µM (inactive); in the assay on SF-295, 37.6 µM (inactive). Besides, in the assay with UO-31, the GI50 is 56.2 µM (inactive).
As for `COC1OC(=O)[C@H]2O[N+]([O-])=C(C)[C@@H]12` (stereo not given in full), the GI50 in the assay with OVCAR-4, in the assay on RPMI-8226, in the assay on K562, in the assay on SK-OV-3, in the assay on HL-60 and in the assay with OVCAR-3 was > 100 µM (inactive) in each case. For the same compound, the GI50 in the assay with EKVX, with NCI-H23, with SW-620, in the assay with NCI-H522, in the assay on SF-539 and in the assay with CAKI-1 was > 100 µM (inactive) in each case. Further, the GI50 in the assay on UACC-257 is > 100 µM (inactive); in the assay with HCT-15, greater than 100 µM; with SK-MEL-5, > 100 µM (inactive); in the assay with SNB-19, > 100 µM (inactive); with OVCAR-8 it was > 100 µM (inactive); with SF-295 it was > 100 µM (inactive). Further, the GI50 in the assay on UO-31 is > 100 µM (inactive).
As for `COc1ccc(NCC(=O)Nn2c(-c3ccccc3)nc3ccccc3c2=O)cc1`, the GI50 is 33.7 µM (inactive) in the assay with OVCAR-4; 24.2 µM (inactive) in the assay on RPMI-8226; 24.5 µM (inactive) in the assay with K562; > 100 µM (inactive) in the assay on SK-OV-3; 42.3 µM (inactive) in the assay on HL-60; 60.7 µM (inactive) in the assay with OVCAR-3. In addition, the GI50 was 69.2 µM (inactive) in the assay with EKVX; 37.2 µM (inactive) with NCI-H23; 28.2 µM (inactive) in the assay with SW-620; > 10 µM (inactive) in the assay with NCI-H522; 39.2 µM (inactive) in the assay on SF-539; 52.2 µM (inactive) in the assay with UACC-257. The GI50 in the assay with HCT-15 was 54 µM; with SK-MEL-5, 14.8 µM (inactive); with SNB-19, 50.2 µM (inactive); in the assay on OVCAR-8, 31.9 µM (inactive); in the assay on SF-295, > 100 µM (inactive); in the assay on UO-31, > 100 µM (inactive). The GI50 in the assay with ACHN is 38.4 µM (inactive).
For `c1ccc(CSC(SCc2ccccc2)c2cccc3ccccc23)cc1`, the GI50 was > 10 µM (inactive) in the assay with OVCAR-4; 9.79 µM (inactive) in the assay on RPMI-8226; > 10 µM (inactive) with K562; > 10 µM (inactive) in the assay with SK-OV-3; > 10 µM (inactive) in the assay on HL-60; > 10 µM (inactive) in the assay on EKVX. Besides, the GI50 was 3.82 µM (inactive) in the assay with NCI-H23; > 10 µM (inactive) in the assay on SW-620; 7.87 µM (inactive) in the assay on NCI-H522; > 10 µM (inactive) with SF-539; > 10 µM (inactive) with CAKI-1; greater than 10 µM in the assay on HCT-15. In addition, the GI50 was > 10 µM (inactive) with SK-MEL-5; > 10 µM (inactive) with SNB-19; > 10 µM (inactive) in the assay with OVCAR-8; 8.85 µM (inactive) in the assay on SF-295; > 10 µM (inactive) in the assay with UO-31; > 10 µM (inactive) in the assay on ACHN.
Turning to `O=c1c2c3c(sc2nc(CN2CCNCC2)n1-c1ccccc1)CCCC3`, the GI50 with OVCAR-4 was 22.8 µM (inactive); in the assay with RPMI-8226 it was > 100 µM (inactive); with K562 it was > 100 µM (inactive); in the assay on SK-OV-3 it was > 100 µM (inactive); in the assay on HL-60, > 100 µM (inactive); with OVCAR-3 it was > 100 µM (inactive). For the same compound, the GI50 with EKVX is > 100 µM (inactive); in the assay on NCI-H23, > 100 µM (inactive); in the assay with SW-620, > 100 µM (inactive); in the assay with NCI-H522, > 100 µM (inactive); in the assay with CAKI-1, 90.8 µM (inactive); with UACC-257 it was > 100 µM (inactive). For the same compound, the GI50 in the assay with HCT-15 is greater than 100 µM; in the assay with SK-MEL-5, > 100 µM (inactive); with SNB-19 it was > 100 µM (inactive); with OVCAR-8, > 100 µM (inactive); in the assay with SF-295 it was > 100 µM (inactive); in the assay on UO-31, 54.2 µM (inactive). Further, the GI50 with ACHN was > 100 µM (inactive).
For the compound `CCCCc1c2c(nc3c1CCc1cc4cc5c(nc4nc1-3)-c1nc3c(c(CCCC)c1CC5)CCC/C3=C\c1ccccc1)/C(=C/c1ccccc1)CCC2`, the GI50 with RPMI-8226, with K562, in the assay with SK-OV-3, in the assay on HL-60, in the assay with OVCAR-3 and in the assay on EKVX was > 100 µM (inactive) in each case. The GI50 in the assay on NCI-H23 was > 100 µM (inactive); in the assay on SW-620, > 100 µM (inactive); in the assay on NCI-H522 it was > 100 µM (inactive); in the assay on SF-539, > 100 µM (inactive); with UACC-257, > 100 µM (inactive); with HCT-15, greater than 100 µM. The GI50 with SNB-19, in the assay on OVCAR-8, in the assay on SF-295, in the assay on UO-31 and in the assay with ACHN was > 100 µM (inactive) in each case.
Take `CCOC(=O)CSc1c(C(=O)OCC)c(=O)n(-c2ccccc2)c(=S)n1-c1ccccc1`: the GI50 with OVCAR-4 was 53.5 µM (inactive); in the assay with RPMI-8226 it was 37.5 µM (inactive); in the assay with K562, 7.53 µM (inactive); with SK-OV-3 it was 89.5 µM (inactive); with HL-60, 17.1 µM (inactive); in the assay with OVCAR-3 it was > 100 µM (inactive). Besides, the GI50 in the assay with EKVX was 62.8 µM (inactive); with NCI-H23, 22.7 µM (inactive); with SW-620, 9.42 µM (inactive); in the assay with NCI-H522, > 100 µM (inactive); with CAKI-1, > 100 µM (inactive); in the assay with UACC-257 it was 29.2 µM (inactive). Moreover, the GI50 with HCT-15 is 21.5 µM; with SK-MEL-5, 23.5 µM (inactive); in the assay on SNB-19 it was 34.7 µM (inactive); in the assay on OVCAR-8, 41 µM (inactive); in the assay with SF-295, 36.7 µM (inactive); in the assay on UO-31, 26.9 µM (inactive). Moreover, in the assay with ACHN, the GI50 was 36 µM (inactive).
Regarding `CCN(CC)CCCC(C)Nc1cc(-c2ccccc2)nc2cc(OC)ccc12` (stereo not given), the GI50 is 4.88 µM (inactive) with OVCAR-4; 2.07 µM (inactive) with RPMI-8226; 0.8 µM (active) in the assay on K562; 16.3 µM (inactive) in the assay on SK-OV-3; 2.55 µM (inactive) in the assay on HL-60; 12.2 µM (inactive) in the assay on OVCAR-3. The GI50 was 15.4 µM (inactive) in the assay with NCI-H23; 6.44 µM (inactive) in the assay with NCI-H522; 3.05 µM (inactive) in the assay with SF-539; 17.4 µM (inactive) in the assay on UACC-257; > 10 µM (inactive) in the assay on SNB-19; 8.79 µM (inactive) with SF-295. Besides, the GI50 in the assay on UO-31 is 2.54 µM (inactive); in the assay on ACHN, 6.53 µM (inactive).
